Data on 29 compounds can be found in BindingDB's records for patent WO2025049746 (Eikon Therapeutics, 2025).

In assay [1] the target is Bifunctional 3'-5' exonuclease/ATP-dependent helicase WRN (Homo sapiens, UniProt Q14191). Description: ADP-Glo Kinase Assay. As for the experimental part:
ATPase activity was measured using the ADP-Glo Kinase Assay following the manufacturers recommended protocol.
(ADP-Glo first removes unused ATP, then detects ADP through luciferase.)

The target in assay [2] is T1, Bifunctional 3'-5' exonuclease/ATP-dependent helicase WRN [480-1251] (UniProt Q14191).
T1 construct: 480-1251
Kind of assay: Biochemical Activity Assays.

Sequence of Bifunctional 3'-5' exonuclease/ATP-dependent helicase WRN (Q14191 whole entry): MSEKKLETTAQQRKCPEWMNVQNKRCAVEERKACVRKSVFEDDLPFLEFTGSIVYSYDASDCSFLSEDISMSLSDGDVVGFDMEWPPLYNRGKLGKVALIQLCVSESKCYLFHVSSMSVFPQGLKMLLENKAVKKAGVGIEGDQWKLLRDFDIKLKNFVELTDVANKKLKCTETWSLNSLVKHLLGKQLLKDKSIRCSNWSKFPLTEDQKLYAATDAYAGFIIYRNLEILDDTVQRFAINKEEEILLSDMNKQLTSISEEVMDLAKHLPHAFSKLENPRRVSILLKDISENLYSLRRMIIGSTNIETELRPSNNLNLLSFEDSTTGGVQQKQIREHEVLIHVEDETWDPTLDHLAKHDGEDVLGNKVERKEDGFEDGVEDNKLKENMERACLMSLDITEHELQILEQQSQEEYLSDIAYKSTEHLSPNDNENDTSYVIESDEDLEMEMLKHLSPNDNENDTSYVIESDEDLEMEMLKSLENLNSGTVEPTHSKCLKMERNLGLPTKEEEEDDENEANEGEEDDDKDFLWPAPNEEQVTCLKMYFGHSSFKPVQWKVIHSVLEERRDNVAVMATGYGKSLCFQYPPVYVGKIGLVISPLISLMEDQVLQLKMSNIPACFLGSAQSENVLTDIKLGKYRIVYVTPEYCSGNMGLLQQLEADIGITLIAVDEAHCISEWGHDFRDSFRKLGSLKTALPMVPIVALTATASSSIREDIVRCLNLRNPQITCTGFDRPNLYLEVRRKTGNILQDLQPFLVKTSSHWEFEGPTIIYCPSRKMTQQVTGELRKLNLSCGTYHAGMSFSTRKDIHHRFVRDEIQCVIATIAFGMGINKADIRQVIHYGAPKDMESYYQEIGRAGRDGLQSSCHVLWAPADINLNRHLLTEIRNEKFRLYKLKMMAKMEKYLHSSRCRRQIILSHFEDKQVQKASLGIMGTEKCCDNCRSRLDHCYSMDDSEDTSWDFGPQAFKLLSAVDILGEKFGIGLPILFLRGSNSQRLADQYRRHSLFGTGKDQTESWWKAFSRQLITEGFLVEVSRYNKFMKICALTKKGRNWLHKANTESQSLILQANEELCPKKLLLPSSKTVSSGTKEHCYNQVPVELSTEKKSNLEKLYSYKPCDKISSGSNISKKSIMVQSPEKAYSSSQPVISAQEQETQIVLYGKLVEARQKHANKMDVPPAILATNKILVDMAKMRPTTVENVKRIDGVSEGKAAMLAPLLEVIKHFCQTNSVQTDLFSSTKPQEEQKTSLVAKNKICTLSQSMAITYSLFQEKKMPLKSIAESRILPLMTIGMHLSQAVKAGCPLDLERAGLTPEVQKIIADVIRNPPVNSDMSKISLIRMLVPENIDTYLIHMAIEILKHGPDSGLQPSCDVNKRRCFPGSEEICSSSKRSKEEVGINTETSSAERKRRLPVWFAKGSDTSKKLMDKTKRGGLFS
T1 sequence (Q14191 480-1251): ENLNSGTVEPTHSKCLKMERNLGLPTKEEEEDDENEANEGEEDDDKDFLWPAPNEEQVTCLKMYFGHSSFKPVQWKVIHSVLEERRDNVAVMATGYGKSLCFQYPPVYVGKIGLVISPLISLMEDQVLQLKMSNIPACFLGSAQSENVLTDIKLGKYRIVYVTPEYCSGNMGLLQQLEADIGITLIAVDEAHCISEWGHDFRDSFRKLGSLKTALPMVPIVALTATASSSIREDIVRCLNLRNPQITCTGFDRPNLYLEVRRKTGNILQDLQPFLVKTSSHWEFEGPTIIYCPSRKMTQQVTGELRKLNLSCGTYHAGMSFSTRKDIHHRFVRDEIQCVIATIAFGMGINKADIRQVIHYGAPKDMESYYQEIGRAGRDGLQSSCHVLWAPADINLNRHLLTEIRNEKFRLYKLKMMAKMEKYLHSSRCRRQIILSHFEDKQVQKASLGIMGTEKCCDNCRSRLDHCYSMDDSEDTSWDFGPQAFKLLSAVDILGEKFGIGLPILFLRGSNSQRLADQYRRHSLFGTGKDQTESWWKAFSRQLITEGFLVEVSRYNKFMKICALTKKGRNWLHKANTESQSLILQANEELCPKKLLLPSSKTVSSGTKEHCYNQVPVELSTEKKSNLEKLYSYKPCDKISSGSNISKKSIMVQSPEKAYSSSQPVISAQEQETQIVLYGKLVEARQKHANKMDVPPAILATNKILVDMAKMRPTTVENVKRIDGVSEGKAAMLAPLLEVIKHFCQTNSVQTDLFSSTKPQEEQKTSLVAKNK

The IC50 is the concentration needed to halve the response being measured. High values mean weaker potency, low ones greater potency. Take `CCc1c(N2CCN(C(=O)c3ncnc(C)c3O)CC2)c(=O)n2nc(C3=CCOCC3)nc2n1CC(=O)NC12CC(C3CC3)(C1)C2` [WO2025049746, Example 359]: the concentration for half-maximal inhibition (IC50) in assay [1] came to 232 nM; in assay [2], 148 nM.

Regarding `CCc1c(N2CCN(C(=O)c3ncnc(C)c3O)CC2)c(=O)n2nc(C3=CCOCC3)nc2n1CC(=O)Nc1ccc(C(F)(F)F)c2cccnc12` [WO2025049746, Example 360], the results for the half-maximal inhibitory concentration (IC50) in assay [1] and in assay [2] were 2140 nM and 1990 nM, respectively.

On to `CCc1c(N2CCN(C(=O)c3ncnc(C)c3O)CC2)c(=O)n2nc(C3=CCOCC3)nc2n1CC(=O)NC12CC(CCC(F)(F)F)(C1)C2` [WO2025049746, Example 361], for which the IC50 in assay [1] and in assay [2] was 29700 nM throughout.

As for `CCc1c(N2CCN(C(=O)c3ncnc(C)c3O)CC2)c(=O)n2nc(C3=CCOCC3)nc2n1CC(=O)NC12CCC(C(F)(F)F)(CC1)C2` [WO2025049746, Example 362], the results for the concentration for half-maximal inhibition (IC50) in assay [1] and in assay [2] were 1650 nM and 615 nM, respectively.

Turning to `CCc1c(N2CCN(C(=O)c3ncnc(C)c3O)CC2)c(=O)n2nc(C3=CCOCC3)nc2n1CC(=O)Nc1ccc(C(F)(F)F)cn1` [WO2025049746, Example 363], the IC50 in assay [1] came to 155 nM; in assay [2], 81 nM.

Regarding `CCc1c(N2CCN(C(=O)c3ncnc(C)c3O)CC2)c(=O)n2nc(C3=CCOCC3)nc2n1CC(=O)Nc1ccc(SC(F)(F)F)cc1Cl` [WO2025049746, Example 364], the IC50 turned out to be 36 nM in assay [1] and 30 nM in assay [2].

Regarding `CCc1c(N2CCN(C(=O)c3ncnc(C)c3O)CC2)c(=O)n2nc(C3=CCOCC3)nc2n1CC(=O)Nc1ccc(C(F)(F)F)c2cccnc12` [WO2025049746, Example 365], the half-maximal inhibitory concentration (IC50) was 63 nM in assay [1] and 44 nM in assay [2].

Regarding `CCc1c(N2CCN(C(=O)c3ncnc(C)c3O)CC2)c(=O)n2nc(C3=CCOCC3)nc2n1CC(=O)NC1CC2(C1)CC2(F)F` (stereo not drawn) [WO2025049746, Example 366], the IC50 in assay [1] stood at 4200 nM; in assay [2], 2540 nM.

On to `CCc1c(N2CCN(C(=O)c3ncnc(C)c3O)CC2)c(=O)n2nc(C3=CCOCC3)nc2n1CC(=O)Nc1ccc(C(F)(F)F)n(C)c1=O` [WO2025049746, Example 367], for which the IC50 was found to be 29700 nM in assay [1] and 8510 nM in assay [2].

For `CCc1c(N2CCN(C(=O)c3ncnc(C)c3O)CC2)c(=O)n2nc(C3=CCOCC3)nc2n1CC(=O)Nc1ccc(C(F)(F)F)c2scnc12` [WO2025049746, Example 368], the IC50 in assay [1] was 36 nM; in assay [2] it was 30 nM.

Take `CCc1c(N2CCN(C(=O)c3ncnc(C)c3O)CC2)c(=O)n2nc(C3=CCOCC3)nc2n1CC(=O)Nc1ccc(OC(F)F)cc1F` [WO2025049746, Example 369]: the results for the IC50 in assay [1] and in assay [2] were 85 nM and 77 nM, respectively.

Consider `CCc1c(N2CCN(C(=O)c3ncnc(C)c3O)CC2)c(=O)n2nc(C3=CCOCC3)nc2n1CC(=O)Nc1ccc(OC(F)F)cc1Cl` [WO2025049746, Example 370], for which the concentration for half-maximal inhibition (IC50) came out at 163 nM in assay [1] and 161 nM in assay [2].

For the compound `CCc1c(N2CCN(C(=O)c3ncnc(C)c3O)CC2)c(=O)n2nc(C3=CCOCC3)nc2n1CC(=O)NC12CC(C)(C1)C2(F)F` [WO2025049746, Example 371], the IC50 came out at 1480 nM in assay [1] and 1110 nM in assay [2].

For `CCc1c(N2CCN(C(=O)c3ncnc(C)c3O)CC2)c(=O)n2nc(C3=CCOCC3)nc2n1CC(=O)NC1CC2(CC(F)C2)C1` (stereo not drawn) [WO2025049746, Example 372], the results for the 50% inhibitory concentration (IC50) in assay [1] and in assay [2] were 1830 nM and 1390 nM, respectively.

As for `CCc1c(N2CCN(C(=O)c3ncnc(C)c3O)CC2)c(=O)n2nc(C3=CCOCC3)nc2n1CC(=O)Nc1c(Cl)cc(C(F)(F)F)c2scnc12` [WO2025049746, Example 373], the IC50 was determined as 64 nM in assay [1] and 51 nM in assay [2].

`CCc1c(N2CCN(C(=O)c3ncnc(C)c3O)CC2)cn2nc(C3=CCOCC3)nc2c1CC(=O)Nc1ccc(C(F)(F)F)cc1Cl` [WO2025049746, Example 374]: the IC50 in assay [1] and in assay [2] was 29700 nM in each case.

As for `Cc1ncnc(C(=O)N2CCN(c3c(OC(F)F)n(CC(=O)Nc4ccc(C(F)(F)F)cc4Cl)c4nc(-c5ccc6c(c5)COC6)nn4c3=O)CC2)c1O` [WO2025049746, Example 375], the IC50 in assay [1] was found to be 1140 nM; in assay [2], 4900 nM.

Turning to `CCc1c(N2CCN(C(=O)c3ncnc(C)c3O)CC2)c(=O)n2nc(-c3ccc4c(c3)COC4)nc2n1CC(=O)Nc1ccc(C(F)(F)F)c2c1CC2` [WO2025049746, Example 376], the IC50 in assay [1] was 36 nM; in assay [2], 28 nM.

On to `CCc1c(N2CCN(C(=O)c3ncnc(C)c3O)CC2)c(=O)n2nc(N3CCC3)nc2n1CC(=O)Nc1ccc(C(F)(F)F)c2c1CC2` [WO2025049746, Example 377], for which the values for the concentration for half-maximal inhibition (IC50) in assay [1] and in assay [2] were 45 nM and 32 nM, respectively.

In the case of `CCc1c(N2CCN(C(=O)c3ccccc3NS(C)(=O)=O)CC2)c(=O)n2nc(-c3cccc4c3OCCO4)nc2n1CC(=O)Nc1ccc(C(F)(F)F)cc1Cl` [WO2025049746, Example 378], the IC50 is 154 nM in assay [1] and 96 nM in assay [2].

Consider `CCc1c(N2CCN(C(=O)c3ccccc3NS(=O)(=O)C3CC3)CC2)c(=O)n2nc(-c3cccc4c3OCCO4)nc2n1CC(=O)Nc1ccc(C(F)(F)F)cc1Cl` [WO2025049746, Example 379], for which the values for the 50% inhibitory concentration (IC50) in assay [1] and in assay [2] were 202 nM and 135 nM, respectively.

With `CCc1c(N2CCN(C(=O)c3ncnc(C)c3O)CC2)c(=O)n2nc(-c3ccc4c(c3)OCO4)nc2n1CC(=O)Nc1c(Cl)cc(C(F)(F)F)c2c1CC2` [WO2025049746, Example 380], the IC50 in assay [1] was found to be 61 nM; in assay [2] it was 44 nM.

Take `CCc1c(N2CCN(C(=O)c3ncnc(C)c3O)CC2)c(=O)n2nc(-c3ccc4c(c3)OCC4)nc2n1CC(=O)Nc1c(Cl)cc(C(F)(F)F)c2c1CC2` [WO2025049746, Example 381]: the IC50 is 55 nM in assay [1] and 40 nM in assay [2].

On to `CCc1c(N2CCN(C(=O)c3ncnc(C)c3O)CC2)c(=O)n2nc(C3C4COCC43)nc2n1CC(=O)Nc1ccc(C(F)(F)F)c2c1CC2` (stereo not drawn) [WO2025049746, Example 382], for which the figures for the half-maximal inhibitory concentration (IC50) in assay [1] and in assay [2] were 2960 nM and 2300 nM, respectively.

Regarding `CCc1c(N2CCN(C(=O)c3ncnc(C)c3O)CC2)c(=O)n2nc(-c3ccc4c(c3)CCO4)nc2n1CC(=O)Nc1c(Cl)cc(C(F)(F)F)c2c1CC2` [WO2025049746, Example 383], the IC50 was 94 nM in assay [1] and 74 nM in assay [2].

As to `CCc1c(N2CCN(C(=O)c3ncnc(C)c3O)CC2)c(=O)n2nc(-c3ccc4c(c3)COC4)nc2n1CC(=O)Nc1c(Cl)cc(C(F)(F)F)c2c1CC2` [WO2025049746, Example 384], the IC50 in assay [1] came to 35 nM; in assay [2], 29 nM.

Regarding `CCc1c(N2CCN(C(=O)c3ncnc(C)c3O)CC2)c(=O)n2nc(-c3cccc4c3OCO4)nc2n1CC(=O)Nc1c(Cl)cc(C(F)(F)F)c2c1CC2` [WO2025049746, Example 385], the half-inhibitory concentration (IC50) in assay [1] amounted to 96 nM; in assay [2], 87 nM.

As for `CCc1c(N2CCN(C(=O)c3ncnc(C)c3O)CC2)c(=O)n2nc(-c3cccc4c3COC4)nc2n1CC(=O)Nc1c(Cl)cc(C(F)(F)F)c2c1CC2` [WO2025049746, Example 386], the 50% inhibitory concentration (IC50) in assay [1] turned out to be 89 nM; in assay [2] it was 60 nM.

Regarding `CCc1c(N2CCN(C(=O)c3ncnc(C)c3O)CC2)c(=O)n2nc(N(C)C)nc2n1CC(=O)Nc1c(Cl)cc(C(F)(F)F)c2c1CC2` [WO2025049746, Example 387], the IC50 was 41 nM in assay [1] and 32 nM in assay [2].
